Assay results: US5391540A, “Substituted pyridine compounds” (Rohm and Haas Company, priority 1993, dated 1995)
Several values for one entry are separate records, joined by “and”; a condition that tells them apart may be missing. Identical values can stand only once.

Assays:
Assay type in all cases: in vivo
Cocw = assay: plant injury after spraying emerged plants (Table D); set-up: scale not given here
Method in brief: (§1)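 Greenhouse post-emergence test: plants grown in silt loam (some with fertilizer) to 1–3 true leaf stage (9–14 days), sprayed at 170.3 kPa with emulsifier-containing solution at 1870 L/Ha delivering stated rates. Injury versus unsprayed controls scored after ~10–14 days (usually 11).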

Canada thistle = assay: Pre-emergent herbicidal activity (Table A); details: Cirsium arvense, pre-emergence, Cath, 11.2 kg/ha, 10-14 days, read-out: herbicidal rating (% inhibition)
Method in brief: (§2)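 Seeds or perennial propagules set on compacted topsoil, then covered with soil mixed with a known amount of test compound applied in acetone or water carrier. Ratings assigned on a scale based on percent inhibition of each species.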

Common Lambsquarters = assay: Pre-emergent herbicidal activity (Table A); details: Chenopodium album, pre-emergence, Colq, 11.2 kg/ha, 10-14 days, read-out: herbicidal rating (% inhibition)
Method in brief: as §2

Pennsylvania Smartweed = assay: Pre-emergent herbicidal activity (Table A); details: pre-emergence, Pesw, 11.2 kg/ha, 10-14 days, read-out: herbicidal rating (% inhibition)
Method in brief: as §2

Quackgrass = assay: Pre-emergent herbicidal activity (Table A); details: pre-emergence, Rhqg, 11.2 kg/ha, 10-14 days, read-out: herbicidal rating (% inhibition)
Method in brief: as §2

Rhizome Johnsongrass = assay: Pre-emergent herbicidal activity (Table A); details: Sorghum halepense, pre-emergence, Rhjg, 11.2 kg/ha, 10-14 days, read-out: herbicidal rating (% inhibition)
Method in brief: as §2

Colq = assay: plant injury after spraying emerged plants (Table D); set-up: scale not given here
Method in brief: as §1

Pesw = assay: as above; set-up: scale not given here
Method in brief: as §1

Sube = assay: as above; set-up: scale not given here
Method in brief: as §1

SMILES | plant injury rating, Cocw (Cocw; 0.2803 kg/ha) | plant injury rating, Cocw (Cocw; 1.1210 kg/ha) | plant injury rating, Cocw (Cocw; 5.6050 kg/ha) | inhibition at 11200 g/ha (Canada thistle) | inhibition at 11200 g/ha (Common Lambsquarters) | inhibition at 11200 g/ha (Pennsylvania Smartweed) | inhibition at 11200 g/ha (Quackgrass) | inhibition at 11200 g/ha (Rhizome Johnsongrass) | further results
COC(=O)c1c(OC)nc(C(F)(F)F)c(C(=O)n2ccc(F)n2)c1C1CCC1 [Compound 140, 3-pyridinecarboxylic acid, 4-cyclobuty1-5-[(3-fluoro-1H-pyrazo1-1-yl)carbonyl]-2-methoxy-6-(trifluoromethyl)-, methyl ester] | 2 | 2 | 3 |  |  |  |  |  | 
COC(=O)c1c(OC)nc(C(F)(F)F)c(C(=O)SC)c1C1CCC1 [Compound 137, 3-pyridinecarboxylic acid, 4-cyclobuty1-2-methoxy-5-[(methylthio)carbonyl]-6-(trifluoromethyl)-, methyl ester] | 2 | 3 | 3 |  |  |  |  |  | 
COC(=O)c1c(OC)nc(C(F)(F)F)c(C(=O)n2cccn2)c1CC1CC1 [Compound 116, 3-pyridinecarboxylic acid, 4-(cyclopropylmethyl)-2-methoxy-5-(1H-pyrazo1-1-ylcarbonyl)-6-(trifluoromethyl)-, methyl ester] | 1 | 2 | 2 |  |  |  |  |  | plant injury rating, Cocw (Cocw; 0.0701 kg/ha): 0
COC(=O)c1c(OC)nc(C(F)(F)Cl)c(C(=O)OC)c1CC(C)C [Compound 30, 3,5-pyridinedicarboxylic acid, 2-(chlorodifluoromethyl)-6-methoxy-4-(2-methylpropyl)-, dimethyl ester] |  |  |  | 75 to 100% | 75 to 100% | 75 to 100% | 75 to 100% | 75 to 100% | plant injury rating, Colq (Colq; 0.5605 kg/ha): 0; plant injury rating, Colq (Colq; 1.1210 kg/ha): 0; plant injury rating, Colq (Colq; 2.8025 kg/ha): 1; plant injury rating, Colq (Colq; 5.6050 kg/ha): 1; plant injury rating, Colq (Colq; 8.4075 kg/ha): 1; plant injury rating, Colq (Colq; 11.2100 kg/ha): 2; plant injury rating, Pesw (Pesw; 0.5605 kg/ha): 0; plant injury rating, Pesw (Pesw; 1.1210 kg/ha): 0; plant injury rating, Pesw (Pesw; 2.8025 kg/ha): 1; plant injury rating, Pesw (Pesw; 5.6050 kg/ha): 1; plant injury rating, Pesw (Pesw; 8.4075 kg/ha): 1; plant injury rating, Pesw (Pesw; 11.2100 kg/ha): 1; plant injury rating, Sube (Sube; 0.5605 kg/ha): 0; plant injury rating, Sube (Sube; 1.1210 kg/ha): 1; plant injury rating, Sube (Sube; 2.8025 kg/ha): 1; plant injury rating, Sube (Sube; 5.6050 kg/ha): 1; plant injury rating, Sube (Sube; 8.4075 kg/ha): 1; plant injury rating, Sube (Sube; 11.2100 kg/ha): 1
COC(=O)c1c(OC)nc(C(F)(F)F)c(C(=O)Cl)c1CC1CC1 [Compound 113, 3-pyridinecarboxylic acid, 5-(chlorocarbonyl)-4-(cyclopropylmethyl)-2-methoxy-6-(trifluoromethyl)-, methyl ester] | 0 |  | 0 |  |  |  |  |  | 
COC(=O)c1c(OC)nc(C(F)(F)F)c(C2=NCCS2)c1CC(C)C [Compound 50, 3-pyridinecarboxylic acid, 5-(4,5-dihydro-2-thiazolyl)-2-methoxy-4-(2-methylpropyl)-6-(trifluoromethyl)-, methyl ester] |  |  |  | 75 to 100% | 75 to 100% | 75 to 100% | 75 to 100% | 75 to 100% | 
COC(=O)c1c(O)nc(C(F)(F)F)c(C(=O)OC)c1CC(C)C [Compound 1, 3,5-pyridinedicarboxylic acid, 2-hydroxy-4-(2-methylpropyl)-6-(trifluoromethyl)-, dimethyl ester] |  |  |  | 0 to 24% | 0 to 24% | 0 to 24% | 0 to 24% | 0 to 24% | 
COC(=O)c1c(OC)nc(C(F)(F)F)c(N=CSC)c1CC(C)C [Compound 77, 3-pyridinecarboxylic acid, 2-methoxy-4-(2-methylpropyl)-5-[[(methylthio)methylene]amino]-6-(trifluoromethyl)-, methyl ester] |  |  |  | 75 to 100% | 75 to 100% | 75 to 100% | 75 to 100% | 75 to 100% | plant injury rating, Colq (Colq; 1.1210 kg/ha): 3 and 2; plant injury rating, Colq (Colq; 2.8025 kg/ha): 3 and 2; plant injury rating, Colq (Colq; 5.6050 kg/ha): 2 and 3; plant injury rating, Colq (Colq; 11.2100 kg/ha): 2 and 3; plant injury rating, Pesw (Pesw; 1.1210 kg/ha): 0; plant injury rating, Pesw (Pesw; 2.8025 kg/ha): 0; plant injury rating, Pesw (Pesw; 5.6050 kg/ha): 0; plant injury rating, Pesw (Pesw; 11.2100 kg/ha): 2 and 1; plant injury rating, Sube (Sube; 1.1210 kg/ha): 1; plant injury rating, Sube (Sube; 2.8025 kg/ha): 2; plant injury rating, Sube (Sube; 5.6050 kg/ha): 2 and 1; plant injury rating, Sube (Sube; 11.2100 kg/ha): 2
